Measured values as given in patent publication US10450317B2, “Notch pathway signaling inhibitor compounds” (Eli Lilly and Company, priority 2015, dated 2019).
“And” between values parts separate entries of the source, which are not always exact repeats. Equal values may be shown once.

Test system: cleaved Notch1 (N1ICD)
Test: In-vivo target inhibition study, cleaved N1ICD in lung by ELISA
Design: species or system Balb/C mice
Conditions: mouse lung
Experimental: To evaluate in vivo effect of Compound 1, Isomer 2 and. Compound 2, Isomer 2 on inhibition of Notch processing pharmacodynamics (PD), animal studies were conducted in non-tumor bearing Balb/C mice (Charles River). A total of 5 mice are used for each group. Mice are fed ad libitum on normal chow. Treatment is initiated with oral administration (gavage) of compound or vehicle (1% Na-CMC in 0.25% Tween-80) in 0.2 mL volume. At designated time points (4 or 8 hours after the dose) following treatment, animals are sacrificed by CO2 asphyxiation and cervical dislocation. Tissues (Lungs) are removed and used for PD response analysis as measured by cleaved N1ICD.
To evaluate N1ICD levels in lung, approximately 75 mg is cut from the frozen tissue and minced prior to homogenization (actual mass recorded). […] are transferred to Lysing Matrix-D™ tubes and re-suspended in ice-cold XY lysis buffer (25 mM Tris pH 7.5, 10 μg/ml Trypsin/Chymotrypsin inhibitor, 10 μg/ml Aprotinin, 60 mM Beta-glycerol phosphate, 1% Triton® X-100, 10 mM NaF, 2.5 mM pyrophosphate, 150 mM NaCl, 15 mM ethylene diamine tetra acetic acid (EDTA) pH 8.0, 5 mM ethylene glycol-bis(2-aminoethylether)-N,N,N′,N′-tetra acetic acid (EGTA) pH 8.0, 1 mM Na Vanadate, 10 μg/ml Leupeptin, 1 mM dithiothreitol, 1 μM microcystin LR, 10 μg/ml N-p-tosyl-L-phenylalanine chloromethyl ketone (TPCK), 2 mM Nα-p-tosyl-L-arginine methyl ester hydrochloride (TAME), 15 mM 4-nitrophenyl phosphate di(tris) salt (PNPP), 0.1 mM 4-(2-aminoethyl) benzenesulfonyl fluoride hydrochloride (AEBSF), 5 mM benzamidine, 1 μM Okadaic Acid) containing 1× Complete tablet (Roche Complete™ No. 11697 498 001) and 1× Protease Inhibitor cocktail (Sigma-Aldrich P8340) at a mass: volume ratio of 75 mg/ml buffer. Tissues are homogenized in a Fast Prep FP120 homogenizer (Thermo Scientific, Rockford, Ill.) at a speed of 6.0 for 30 seconds at 4° C., followed by 15 minute incubation on ice. This is repeated for a total of 2-3 cycles until homogenization is complete. Lysates are spun in a 4° C. eppendorf centrifuge at 30,000 rpm for 15 minutes to remove debris. 400 μl of supernatant is removed and transferred to a new eppendorf tube and subjected to a freeze/thaw cycle. Samples are re-spun in a 4° C. eppendorf centrifuge at 30,000 rpm for 30 minutes and 120 μl of supernatant is collected for analysis. Total protein concentration is determined using Pierce BCA Protein Assay Kit™ (Thermo Scientific, Rockford, Ill.) using a Thermomax™ plate reader (Molecular Devices, Sunnyvale, Calif.). N1ICD levels are determined using a custom N1ICD ELISA. Analyte is captured with a cleaved Notch1 (Val1744)-specific custom rabbit monoclonal antibody and detected with a C-terminal Notch1 SULFO-TAG™ (Meso Scale Discovery, Gaithersburg, Md.) polyclonal sheep antibody (R&D Systems, Minneapolis, Minn.). Lysates are diluted to 2 μg/μl in ice-cold ELISA tris lysis buffer (R6OTX) (Meso Scale Discovery, Gaithersburg, Md.) containing 1× Complete tablet (Roche Complete™ mini No. 11 836 153 001) and 1× Protease Inhibitor cocktail (Sigma-Aldrich P8340), and 25 μl is added to the ELISA plate. Incubation of 50 μg protein lysate is done at RT for one hour each to capture analyte and with detection antibody. Plates are read on a Sector Imager 6000™ (Meso Scale Discovery, Gaithersburg, Md.). Background subtracted N1ICD is normalized to total protein and presented as % inhibition relative to the vehicle-treated group. N1ICD % inhibition and statistical significance (p value) as measured by Dunett's method in tumors harvested 4 hours after last dose for Compound 1, Isomer 2 or Compound 2, Isomer 2 is analyzed essentially as described above and summarized in Table 1.

[1] = oral 10 mg/kg, 4 hours following treatment

SMILES | % N1ICD inhibition (Ave ± SD; n = 1) [1] [%] | % N1ICD inhibition (Ave ± SD; n = 1) (oral 10 mg/kg, 8 hours following treatment) [%] | % N1ICD inhibition (Ave ± SD; n = 1) (oral 0.3 mg/kg, 8 hours following treatment) [%] | % N1ICD inhibition (Ave ± SD; n = 1) (oral 1 mg/kg, 8 hours following treatment) [%] | % N1ICD inhibition (Ave ± SD; n = 1) (oral 3 mg/kg, 8 hours following treatment) [%] | % N1ICD inhibition (Ave ± SD; n = 1) (oral 10 mg/kg, 8 hours following treatment, listed as 1, Isomer 2, 10 mg/kg) | % N1ICD inhibition (Ave ± SD; n = 1) (oral 30 mg/kg, 8 hours following treatment) [%] | % N1ICD inhibition (Ave ± SD; n = 1) (oral 100 mg/kg, 8 hours following treatment) [%]
C[C@H](NC(=O)CCC(F)(F)F)C(=O)NC1C(=O)C=C2N(CCC2(C)C)c2ncccc21 (single isomer, unassigned) [Compound 2, Isomer 2] | 65 ± 11 | 15 ± 14 | – | – | – | – | – | –
COc1ccc2c(c1)N1CCC(C)(C)C1=CC(=O)C2NC(=O)[C@H](C)NC(=O)CCC(F)(F)F (single isomer, unassigned) [Compound 1, Isomer 2] | 70 ± 12 | – | −7 ± 26 | 6 ± 15 | 11 ± 13 | 52 ± 31% and 65 ± 11% | 87 ± 3 | 92 ± 3
